In patent US20240417408A1, “SMALL MOLECULE INHIBITORS OF KRAS G12C MUTANT” (MERCK SHARP & DOHME CORP., priority 2021, published 2024):

Key:
[1] = tested on: MIA PaCa-2 cells; assay: Test Example 3: growth inhibition activity on KRAS-G12C mutant cell line (MIA PaCa-2); type: cell-based; conditions: Homo sapiens, 72 h, MIA PaCa-2, 3-day culture, CellTiter-Glo 3D, read-out: CTX MiaPaCa IC50
Method: Test Example 3: Assay of Growth Inhibition Activity on KRAS-G12C Mutant Cell Line (MIA PaCa-2) (In Vitro)
MIA PaCa-2 cells (provided by Sumitomo Dainippon Pharma Co., Ltd.), which are a KRAS-G12C mutant human pancreas cancer cell line, were suspended in a 10% fetal bovine serum-containing RPMI1640 medium (manufactured by Fujifilm Wako Pure Chemical Corporation.). The cell suspension was seeded into each well of a 384-well U bottom microplate and cultured in an incubator containing 5% CO2 gas at 37° C. for 1 day. The compounds obtained in the Examples section were used as test compounds and were dissolved in DMSO, respectively, and each test compound was diluted with DMSO to give a concentration 500 times the final concentration. The resultant solution of the test compound in DMSO was diluted with the medium used for suspending cells and added to each well of the cell-culture plate to give a DMSO final concentration of 0.2%, followed by culture in an incubator containing 5% CO2 gas at 37° C. for another 3 days. The cell count after 3-day culture in the presence of the test compound was measured using CellTiter-Glo 3D Reagent (manufactured by Promega Corporation). To all cells were added with CellTiter-Glo 3D Reagent and mixed for 10 minutes. 30 minutes after mixing, luminescence was measured by a plate reader. The growth inhibition rate was calculated from the following equation, and the concentration of the test compound at which 50% inhibition was achieved (IC50 (nM)) was determined.
[formula] • T: the emission intensity in a well into which a test compound was added. • C: the emission intensity in a well into which a test compound was not added.

[2] = molecular target: T1, interaction between KRAS G12C and cRAF-RBD (Homo sapiens, UniProt P01116, G12C); assay: Test Example 2: inhibitory activity on interaction between KRAS G12C and cRAF (Alpha technology); type: binding; conditions: GMPPNP-bound KRAS G12C incubated with compound at 25° C. for 1 hour, then cRAF-RBD
T1 construct: TEV protease site (ENLYFQG); made in house; host or cells: E. coli
Method: Test Example 2: Evaluation of Inhibitory Activity of Compounds on Interaction Between KRAS G12C and cRAF (In Vitro)
Interaction between recombinant KRAS G12C mutant protein (SEQ ID NO: 1) and cRAF RAS-binding domain (cRAF-RBD, amino acids 50-132, Jena Biosciences GmbH) was measured using Alpha technology (PerkinElmer Inc.).
Recombinant KRAS G12C protein with an N-terminal His-tag was expressed in E. coli and purified by affinity chromatography. To prepare GTP-bound form and GDP-bound form of KRAS G12C protein, 50 μM KRAS G12C protein was incubated with 1 mM GMPPNP (Jena Bioscience GmbH) and 1 mM GDP, respectively, in a loading buffer (20 mM Tris-HCl (pH 7.5), 50 mM NaCl, 1 mM DTT and 2.5 mM EDTA) for 1 hour on ice. After the incubation, MgCl2 was added to a final concentration of 10 mM, followed by incubation at room temperature for 30 minutes. The mixture was allowed to pass through a NAP-5 column to remove free nucleotides and purified, and the resultant nucleotide-bound KRAS G12C protein was used for compound evaluation.
For the measurement of the inhibitory activity of compounds on interaction between KRAS G12C and cRAF-RBD, GMPPNP-bound KRAS G12C protein was incubated with various concentrations of compound in a reaction buffer (20 mM Tris-HCl (pH 7.5), 100 mM NaCl, 1 mM MgCl2, 1 mM TCEP, 0.1% Tween 20) at 25° C. for 1 hour. After the incubation, recombinant cRAF-RBD and Alpha detection reagents were added and incubated at room temperature for 1.5 hours for binding. Interaction of KRAS G12C and cRAF-RBD was monitored by measuring Alpha signal. Inhibition % was calculated using the signal from the reaction without test compound (DMSO control) as 0% inhibition and the signal from the reaction using GDP-bound KRAS G12C in place of GMPPNP-bound KRAS G12C as 100% inhibition. IC50 values were calculated from dose titration curve using curve fitting by XLfit software (IDBS).

[3] = molecular target: T2, Recombinant KRAS G12C mutant protein (amino acids 1-169, SEQ ID NO: 1) (Homo sapiens, UniProt P01116, G12C); assay: Test Example 1: inhibitory activity on KRAS G12C nucleotide (GDP-GTP) exchange reaction in vitro; type: biochemical; conditions: BODIPY FL GDP-bound KRAS G12C incubated with compound at 25° C. for 1 hour, then SOS1 and GMPPNP, read-out: GNE IC50
T2 construct: His6 (N); TEV protease site (ENLYFQG; named from own knowledge) (N); made in house; host or cells: E. coli
Method: Test Example 1: Evaluation of inhibitory activity of compounds on KRAS G12C nucleotide (GDP-GTP) exchange reaction in vitro
Recombinant KRAS G12C mutant protein (amino acids 1-169, SEQ ID NO: 1) and cleaved recombinant SOS1 (amino acids 564-1049, SEQ ID NO:2) proteins were expressed in E. coli and purified by affinity chromatography.
To prepare BODIPY FL GDP-bound KRAS G12C protein, 50 μM KRAS G12C protein was incubated with 0.5 mM BODIPY FL GDP in a loading buffer (20 mM Tris-HCl (pH 7.5), 50 mM NaCl, 1 mM DTT and 2.5 mM EDTA) for 1 hour on ice. After the incubation, MgCl2 was added to a final concentration of 10 mM, followed by incubation at room temperature for 30 minutes. The mixture was allowed to pass through a NAP-5 column to remove free nucleotides and purified BODIPY FL GDP-bound KRAS G12C protein was used for compound evaluation.
For the measurement of the inhibitory activity of compounds on GDP-GTP exchange rate of recombinant KRAS G12C, BODIPY FL GDP-bound KRAS G12C protein was incubated with various concentrations of compound in a reaction buffer (20 mM Tris-HCl (pH 7.5), 100 mM NaCl, 1 mM MgCl2, 2 mM DTT, 0.1% Tween 20) at 25° C. for 1 hour. After the incubation, recombinant SOS1 and Guanosine-5′-[(β,γ)-imido]triphosphate, Tetralithium salt (GMPPNP) (Jena Bioscience GmbH) were added and incubated at room temperature for 30 minutes to proceed SOS1-dependent GDP-GTP exchange reaction on KRAS G12C. Replacement of BODIPY FL GDP by GMPPNP was measured by calculating the ratio of fluorescence intensities of BODIPY FL before and after the exchange reaction. Inhibition % was calculated by setting the fluorescence ratio from the reaction without test compound (DMSO control) and the fluorescence ratio from the reaction without SOS1 and GMPPNP as 0% and 100% inhibition, respectively. IC50 values were calculated from dose titration curve using curve fitting by XLfit software (IDBS).

T1 sequence (P01116 with tags, fused parts or gaps isoform P01116-2 G12C): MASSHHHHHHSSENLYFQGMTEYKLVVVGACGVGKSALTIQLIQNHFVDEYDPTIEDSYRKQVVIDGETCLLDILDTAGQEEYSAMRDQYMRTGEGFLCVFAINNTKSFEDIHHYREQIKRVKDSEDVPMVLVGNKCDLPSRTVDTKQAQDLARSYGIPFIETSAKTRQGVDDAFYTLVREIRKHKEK
T2 sequence (P01116 with tags, fused parts or gaps isoform P01116-2 G12C): as above

IC50 [1] [nM] | IC50 [2] [nM] | IC50 [3] [nM] | Compound
8250 | 3550 | 46.7 | C#Cc1cccc2cc(O)cc(C3Cc4nc(OC[C@@H]5CCCN5C)nc(N5CCN(C(=O)/C=C/CN6CCC(OC)CC6)[C@@H](CO)C5)c4CO3)c12 (stereo partly drawn) [Example 19, (E)-1-((2R)-4-(7-(8-ethynyl-3-hydroxynaphthalen-1-yl)-2-(((S)-1-methylpyrrolidin-2-yl)methoxy)-7,8-dihydro-5H-pyrano[4,3-d]pyrimidin-4-yl)-2-(hydroxymethyl)-piperazin-1-yl)-4-(4-meth-oxypiperidin-1-yl)but-2-en-1-one]
4460 | > 6670 | 58.7 | C#Cc1cccc2cc(O)cc([C@@H]3Cc4nc(OCC5(C(=O)N(C)C)CC5)nc(N5CCN(C(=O)/C=C/CN6CCC(OC)CC6)[C@@H](CC#N)C5)c4CO3)c12 [Example 18, 1-((((S)-4-((S)-3-(cyano-methyl)-4-((E)-4-(4-meth-oxypiperidin-1-yl)but-2-enoyl)piperazin-1-yl)-7-(8-ethynyl-3-hydroxynaph-thalen-1-yl)-7,8-dihydro-5H-pyrano[4,3-d]pyrimidin-2-yl)oxy)methyl)-N,N-dimethylcyclopropane-1-carboxamide]
170 | 309 | 6.7 | C#Cc1cccc2cccc([C@@H]3Cc4nc(OCC5(CN6CCOCC6)CC5)nc(N5CCN(C(=O)/C=C/CN6CCC(OC)CC6)[C@@H](CC#N)C5)c4CO3)c12 [Example 12, 2-((S)-4-((S)-7-(8-ethynyl-naphthalen-1-yl)-2-((1-(morpholinomethyl)cyclo-propyl)methoxy)-7,8-dihydro-5H-pyrano[4,3-d]pyrimidin-4-yl)-1-((E)-4-(4-methoxypiperidin-1-yl)-but-2-enoyl)piperazin-2-yl)-acetonitrile]
6.4 | 64.4 | 0.54 | C#Cc1cccc2cc(O)cc([C@@H]3Cc4nc(OC[C@@H]5CCCN5C)nc(N5CCN(C(=O)/C=C/CN[C@H]6CC[C@H](OC)CC6)[C@@H](CC#N)C5)c4CO3)c12 [Example 8, 2-((S)-4-((S)-7-(8-ethynyl-3-hydroxynaphthalen-1-yl)-2-(((S)-1-methylpyrrolidin-2-yl)methoxy)-7,8-dihydro-5H-pyrano[4,3-d]pyrimidin-4-yl)-1-((E)-4-(((1r,4S)-4-methoxycyclohexyl)amino)-but-2-enoyl)piperazin-2-yl)-acetonitrile]
40.4 | 133 | 1.27 | C#Cc1cccc2cc(O)cc(C3Cc4nc(OC[C@@H]5CCCN5C)nc(N5CCN(C(=O)/C=C/CN[C@H]6CC[C@H](OC)CC6)[C@@H](CC#N)C5)c4CO3)c12 (stereo partly drawn) [Example 9, 2-((2S)-4-(7-(8-ethynyl-3-hydroxynaphthalen-1-yl)-2-(((S)-1-methylpyrrolidin-2-yl)methoxy)-7,8-dihydro-5H-pyrano[4,3-d]pyrimidin-4-yl)-1-((E)-4-(((1r,4S)-4-methoxycyclohexyl)amino)-but-2-enoyl)piperazin-2-yl)-acetonitrile]
4.36 | 50.6 | 0.88 | C#Cc1cccc2cc(O)cc([C@@H]3Cc4nc(OC[C@@H]5CCCN5C)nc(N5CCN(C(=O)/C=C/CN6CCC(OC)CC6)[C@@H](CC#N)C5)c4CO3)c12 [Example 7, 2-((S)-4-((S)-7-(8-ethynyl-3-hydroxynaphthalen-1-yl)-2-(((S)-1-methylpyrrolidin-2-yl)methoxy)-7,8-dihydro-5H-pyrano[4,3-d]pyrimidin-4-yl)-1-((E)-4-(4-methoxy-piperidin-1-yl)but-2-enoyl)-piperazin-2-yl)acetonitrile]
21.7 | 182 | 0.81 | CO[C@H]1CC[C@H](NC/C=C/C(=O)N2CCN(c3nc(OC[C@@H]4CCCN4C)nc4c3CO[C@H](c3cc(O)cc5cccc(Br)c35)C4)C[C@@H]2CC#N)CC1 [Example 11, 2-((S)-4-((S)-7-(8-bromo-3-hydroxynaphthalen-1-yl)-2-(((S)-1-methylpyrrolidin-2-yl)methoxy)-7,8-dihydro-5H-pyrano[4,3-d]pyrimidin-4-yl)-1-((E)-4-(((1r,4S)-4-methoxycyclohexyl)amino)-but-2-enoyl)piperazin-2-yl)-acetonitrile]
100 | 11500 | 5.22 | CN1CCC[C@H]1COc1nc2c(c(N3CCN(C(=O)/C=C/CNC4CC5CCC(C4)O5)[C@@H](CC#N)C3)n1)COC(c1cccc3ccccc13)C2 (stereo partly drawn) [Example 3, 2-((2S)-1-((E)-4-((8-oxa-bicyclo[3.2.1]octan-3-yl)-amino)but-2-enoyl)-4-(2-(((S)-1-methylpyrrolidin-2-yl)methoxy)-7-(naphthalen-1-yl)-7,8-dihydro-5H-pyrano[4,3-d]pyrimidin-4-yl)piperazin-2-yl)acetonitrile]
> 10000 | > 6670 | 338 | C#Cc1cccc2cc(O)cc(C3Cc4nc(OC5CN(S(C)(=O)=O)C5)nc(N5CCN(C(=O)/C=C/CN6CCC(OC)CC6)[C@@H](CC#N)C5)c4CO3)c12 (stereo partly drawn) [Example 16, 2-((2S)-4-(7-(8-ethynyl-3-hydroxynaphthalen-1-yl)-2-((1-(methylsulfonyl)azeti-din-3-yl)oxy)-7,8-dihydro-5H-pyrano[4,3-d]pyrimidin-4-yl)-1-((E)-4-(4-methoxy-piperidin-1-yl)but-2-enoyl)-piperazin-2-yl)acetonitrile]
